{
  "source": "patent US10898434B2",
  "about": "“Single-walled carbon nanotube-assisted antibiotic delivery and imaging techniques” (Texas Christian University, priority 2018, dated 2021)",
  "format_in_all_cases": "cell-based, Staphylococcus epidermidis",
  "key": {"[1]": {"system": "S. epidermidis", "assay": "Colony count (colony formation) assay", "settings": "100 μl stock solution, 24 h at 37° C.", "description": "Using S. epidermidis broth (McFarland 0.5 standard), 100 μl was placed in the center of the agar plate. 100 μl of the respective antibacterial stock solution is added to the center. Bacteria was spread through the Petri dish and the plates were further incubated for 24 h at 37° C. Pictures of the plates were uploaded onto the OpenCFU software to count the number of colonies grown on the plate. Two plates were prepared for each antibacterial treatment with corresponding controls."}, "[2]": {"system": "S. epidermidis", "assay": "Disk diffusion (zone inhibition) assay", "settings": "2 and 4 mg doses; compared to non-treatment control; 24 h at 37° C.", "description": "S. epidermidis broth of McFarland 0.5 standard (absorption of 0.08 to 0.1) was created using Mueller Hilton Broth. This standard stabilized the cell count at an approximate 1×10^8 CFU/mL Dilution was plated within 15 minutes of standardization. Following the proper aseptic techniques, 0.2 mL of bacterial broth was placed in the center of prepared agar dish. A sterile bacteria spreader was used to evenly spread the bacteria throughout the plate to create a lawn.\nTwo different dosages of the antibacterial solutions were tested to increase the breadth and reliability of data. […] Petri dishes are incubated for 24 h at 37° C., then the zones of inhibition were measured with the inclusion of disk diameter in the measurements.\nThe statistical analysis performed in this work confirm the significance of the observed results for diffusion discs performed at different amounts of SWCNT/antibiotic complex loaded onto discs. […] When the p-value of the analysis is lower than the confidence level chosen, the hypothesis is proven false and a significant difference and variation is detected.\nThe dataset is analyzed using a comparison of means function by assigning a mean of the control group and comparing it to the means of each of the treatment groups. […]"}, "[3]": {"system": "S. epidermidis", "assay": "Turbidity assay (absorption at 600 nm)", "settings": "serial dilution, 24 h at 37° C.", "description": "A serial dilution (using the factor of 2) of antibacterial solutions was conducted in 12-well plates starting with 200 μL of antibacterial solution was placed in first well. 850 μl of broth and 50 μl of bacterial broth were added to each well plate. The concentrations tested for doxycycline were 1, 0.5, 0.25, 0.125 and 0 mg/mL. The concentrations tested for methicillin are 1.25, 0.625,0.313, […] and 0 mg/mL. Plates were that incubated at 37° C. for 24 h. The solutions were transferred to cuvettes, and their turbidity is measured using a Cary 500 spectrophotometer with the broth used as a baseline. Two wells were prepared for each concentration."}},
  "data": [
    {"smiles": "COc1cccc(OC)c1C(=O)N[C@@H]1C(=O)N2[C@@H]1SC(C)(C)[C@@H]2C(=O)O", "note": "[methicillin]", "values": [
      {"measurement": "colony count (in words)", "setting": "[1]", "value": "complete lack of inhibition response"},
      {"measurement": "antibacterial effect (zone of inhibition) of antibiotic alone", "setting": "[2]", "value": "no antibiotic activity"},
      {"measurement": "turbidity of bacterial media (absorption at 600 nm)", "setting": "[3]", "value": "some bacterial inhibition"}
    ]}
  ]
}
